Test results from patent publication US20240358693A1, “METHODS OF TREATING PAIN” (Aisa Pharma, Inc., priority 2023, published 2024).

System: participants with SSc-RP
Experiment: Average duration of weekly RP attacks (minutes)
Assay type: in vivo, human
From the text: The absolute change in average duration of weekly RP attacks from baseline to the end of each dosing period was and will be a secondary outcome variable. The sponsor-developed participant-informed diary was and will be used to record data. Average duration of weekly RP attacks is defined as the total duration of RP attacks divided by total number of RP attacks within the last 7 days of each dosing period. Total duration of RP attacks during the last 7 days of screening period divided by the total number of RP attacks will be used as baseline for the analysis of all periods. The variable will be calculated similar to frequency data as before.

[1] = Cilnidipine 20 mg, Excluding Outliers, ITT Population - Part A
[2] = Cilnidipine 20 mg, Excluding Outliers, by Baseline RCS, subgroup 1, ITT Population - Part A
[3] = Cilnidipine 20 mg, by Baseline RCS, subgroup 1, ITT Population - Part A
[4] = Pooled Cilnidipine 10 mg and Cilnidipine 10 mg + Tadalafil 5 mg, n=3, Excluding Outliers, ITT Part A
[5] = Pooled Cilnidipine 10 mg and Cilnidipine 10 mg + Tadalafil 5 mg, n=3, ITT Part A
[6] = Pooled Cilnidipine 10 mg and Cilnidipine 10 mg + Tadalafil 5 mg, Baseline RCS subgroup 1 (unnamed), ITT Part A
[7] = Pooled Cilnidipine 10 mg and Cilnidipine 10 mg + Tadalafil 5 mg, Baseline RCS subgroup 2 (unnamed), ITT Part A
[8] = Pooled Cilnidipine 10 mg and Cilnidipine 10 mg + Tadalafil 5 mg, Excluding Outliers, Baseline RCS subgroup 1 (unnamed), ITT Part A
[9] = Pooled Cilnidipine 10 mg and Cilnidipine 10 mg + Tadalafil 5 mg, Excluding Outliers, Baseline RCS subgroup 2 (unnamed), ITT Part A
[10] = Pooled Cilnidipine 10 mg and Cilnidipine 10 mg + Tadalafil 5 mg, Excluding Outliers, ITT Population - Part A
[11] = Pooled Cilnidipine 10 mg and Cilnidipine 10 mg + Tadalafil 5 mg, Excluding Outliers, by Baseline RCS, subgroup 1, ITT Population - Part A

## COCCOC(=O)C1=C(C)NC(C)=C(C(=O)OC/C=C/c2ccccc2)C1c1cccc([N+](=O)[O-])c1 (centres unmarked) [Cilnidipine, cilnidipine]
[1]
  Average Duration of Weekly RP Attacks (All Attacks) Change from Baseline, Median: -1.09 min
  Average Duration of Weekly RP Attacks (All Attacks) Percent Change from Baseline, Mean: −24.97%
  Average Duration of Weekly RP Attacks (All Attacks) Percent Change from Baseline, Median: −24.97%
  Average Duration of Weekly RP Attacks (All Attacks), Mean: 16.73 min
  Average Duration of Weekly RP Attacks (All Attacks), Median: 16.73 min
[2]
  Average Duration of Weekly RP Attacks (All Attacks) Change from Baseline, Mean: -1.09 min
  Average Duration of Weekly RP Attacks (All Attacks) Change from Baseline, Median: -1.09 min
  Average Duration of Weekly RP Attacks (All Attacks) Percent Change from Baseline, Mean: −24.97%
  Average Duration of Weekly RP Attacks (All Attacks) Percent Change from Baseline, Median: −24.97%
  Average Duration of Weekly RP Attacks (All Attacks), Mean: 16.73 min
  Average Duration of Weekly RP Attacks (All Attacks), Median: 16.73 min
Cilnidipine 20 mg, ITT Part A
  Average Duration of Weekly RP Attacks (All Attacks) Change from Baseline, Mean: -1.09 min
  Average Duration of Weekly RP Attacks (All Attacks) Change from Baseline, Median: -1.09 min
  Average Duration of Weekly RP Attacks (All Attacks) Percent Change from Baseline, Mean: −24.97%
  Average Duration of Weekly RP Attacks (All Attacks) Percent Change from Baseline, Median: −24.97%
  Average Duration of Weekly RP Attacks (All Attacks), Mean: 16.73 min
  Average Duration of Weekly RP Attacks (All Attacks), Median: 16.73 min
[3]
  Average Duration of Weekly RP Attacks (All Attacks) Change from Baseline, Mean: -1.09 min
  Average Duration of Weekly RP Attacks (All Attacks) Change from Baseline, Median: -1.09 min
  Average Duration of Weekly RP Attacks (All Attacks) Percent Change from Baseline, Mean: −24.97%
  Average Duration of Weekly RP Attacks (All Attacks) Percent Change from Baseline, Median: −24.97%
  Average Duration of Weekly RP Attacks (All Attacks), Mean: 16.73 min
  Average Duration of Weekly RP Attacks (All Attacks), Median: 16.73 min
Cilnidipine (20 mg) (n = 3)
  Duration: −20%
  Mean % reduction in duration: 20.0%
  Mean duration of attack at baseline: 19.4
[4]
  Average Duration of Weekly Symptomatic RP Attacks, Change from Baseline, Mean: -12.11 min
  Average Duration of Weekly Symptomatic RP Attacks, Change from Baseline, Median: -16.74 min
  Average Duration of Weekly Symptomatic RP Attacks, Mean: 29.46 min
  Average Duration of Weekly Symptomatic RP Attacks, Median: 31.64 min
  Average Duration of Weekly Symptomatic RP Attacks, Percent Change from Baseline, Mean: −22.40%
  Average Duration of Weekly Symptomatic RP Attacks, Percent Change from Baseline, Median: −33.84%
[5]
  Average Duration of Weekly Symptomatic RP Attacks, Change from Baseline, Mean: -12.11 min
  Average Duration of Weekly Symptomatic RP Attacks, Change from Baseline, Median: -16.74 min
  Average Duration of Weekly Symptomatic RP Attacks, Mean: 29.46 min
  Average Duration of Weekly Symptomatic RP Attacks, Median: 31.64 min
  Average Duration of Weekly Symptomatic RP Attacks, Percent Change from Baseline, Mean: −22.40%
  Average Duration of Weekly Symptomatic RP Attacks, Percent Change from Baseline, Median: −33.84%
[6]
  Average Duration of Weekly Symptomatic RP Attacks, Change from Baseline, Mean: -8.26 min
  Average Duration of Weekly Symptomatic RP Attacks, Change from Baseline, Median: -8.26 min
  Average Duration of Weekly Symptomatic RP Attacks, Mean: 24.82 min
  Average Duration of Weekly Symptomatic RP Attacks, Median: 24.82 min
  Average Duration of Weekly Symptomatic RP Attacks, Percent Change from Baseline, Mean: −16.67%
  Average Duration of Weekly Symptomatic RP Attacks, Percent Change from Baseline, Median: −16.67%
[7]
  Average Duration of Weekly Symptomatic RP Attacks, Change from Baseline, Mean: -19.82 min
  Average Duration of Weekly Symptomatic RP Attacks, Change from Baseline, Median: -19.82 min
  Average Duration of Weekly Symptomatic RP Attacks, Mean: 38.75 min
  Average Duration of Weekly Symptomatic RP Attacks, Median: 38.75 min
  Average Duration of Weekly Symptomatic RP Attacks, Percent Change from Baseline, Mean: −33.84%
  Average Duration of Weekly Symptomatic RP Attacks, Percent Change from Baseline, Median: −33.84%
[8]
  Average Duration of Weekly Symptomatic RP Attacks, Change from Baseline, Mean: -8.26 min
  Average Duration of Weekly Symptomatic RP Attacks, Change from Baseline, Median: -8.26 min
  Average Duration of Weekly Symptomatic RP Attacks, Mean: 24.82 min
  Average Duration of Weekly Symptomatic RP Attacks, Median: 24.82 min
  Average Duration of Weekly Symptomatic RP Attacks, Percent Change from Baseline, Mean: −16.67%
  Average Duration of Weekly Symptomatic RP Attacks, Percent Change from Baseline, Median: −16.67%
[9]
  Average Duration of Weekly Symptomatic RP Attacks, Change from Baseline, Mean: -19.82 min
  Average Duration of Weekly Symptomatic RP Attacks, Change from Baseline, Median: -19.82 min
  Average Duration of Weekly Symptomatic RP Attacks, Mean: 38.75 min
  Average Duration of Weekly Symptomatic RP Attacks, Median: 38.75 min
  Average Duration of Weekly Symptomatic RP Attacks, Percent Change from Baseline, Mean: −33.84%
  Average Duration of Weekly Symptomatic RP Attacks, Percent Change from Baseline, Median: −33.84%
[10]
  Average Duration of Weekly RP Attacks (All Attacks) Change from Baseline, Mean: -9.54 min
  Average Duration of Weekly RP Attacks (All Attacks) Change from Baseline, Median: -8.48 min
  Average Duration of Weekly RP Attacks (All Attacks) Percent Change from Baseline, Mean: −19.10%
  Average Duration of Weekly RP Attacks (All Attacks) Percent Change from Baseline, Median: −21.20%
  Average Duration of Weekly RP Attacks (All Attacks), Mean: 27.90 min
  Average Duration of Weekly RP Attacks (All Attacks), Median: 31.52 min
[11]
  Average Duration of Weekly RP Attacks (All Attacks) Change from Baseline, Mean: -4.13 min
  Average Duration of Weekly RP Attacks (All Attacks) Change from Baseline, Median: -4.13 min
  Average Duration of Weekly RP Attacks (All Attacks) Percent Change from Baseline, Mean: −9.97%
  Average Duration of Weekly RP Attacks (All Attacks) Percent Change from Baseline, Median: −9.97%
  Average Duration of Weekly RP Attacks (All Attacks), Mean: 24.76 min
  Average Duration of Weekly RP Attacks (All Attacks), Median: 24.76 min
